Data on 87 molecules can be found in a melting point compilation (Tetko et al.; mined from patent text by program, amines drawn as free bases though some values may be those of a salt).

For orientation: melting point means the temperature, or range, at which the solid turns liquid. `Nc1ccc(C(=O)OCCCN2CCOCC2)c(N)c1` showed a melting point of 96 °C.
`CNC(=O)c1cnc2ccccc2c1-c1ccccn1` showed a melting point of 171 to 172 °C.
`CC(O)=C(C#N)C(=O)Nc1ccc(Cl)cc1` displayed a melting point of 209 to 211 °C.
`FCc1cccc(C#CCCc2ccc3ccccc3n2)n1` gave a melting point of 70.2 to 74.3 °C.
As for `CC=Cc1c(-c2ccc(C(C)(C)C)cc2)[nH]c2nccnc12`, the figure is 207 to 208 °C; as for `CCOC(=O)C1=C(C)NC(N)=C(C(=O)OCC)C1c1ccccc1[N+](=O)[O-]` (configuration not stated), 159 °C.
In turn, `Cc1ccccc1C(=O)N1CCC(=O)c2ccc(Cl)cc21` had a melting point of 106 to 108 °C.
For `Nc1ccc(-c2nc3ccc(F)cc3s2)cc1`, the melting point lay in the range of 152 to 155 °C.
In turn, `COC(=O)C1(N(OC2CCCO2)C(=O)Cc2c(C)cc(C)cc2C)CCN(OC)CC1` (configuration not stated) yielded a melting point of 107 to 109 °C.
`Cc1ccc(C=CC(=O)c2ccccc2)o1` yielded a melting point of 57 to 61 °C.
As for `Nc1nc2ccccc2c2c1ncn2CCCCCS(=O)(=O)c1ccccc1`, the figure is 171 to 172 °C; as for `CCCc1c(OCCCSc2cccc(CC(=O)OC)c2F)ccc(C(C)=O)c1O`, 63 to 65 °C.
As for `O=C1C=C(NC(=O)C(=O)c2cn(Cc3cc(C(F)(F)F)cc(C(F)(F)F)c3)c3ccccc23)CO1`, the melting point is 276 to 278 °C.
`Cc1cc(NCCO)c(N)c([N+](=O)[O-])c1` registered a melting point of 166 °C.
Molecule `C=CCN1C(=O)C2CC2(c2ccc(NC(C)=O)cc2)C1=O` (configuration not stated) displayed a melting point of 113 to 116 °C.
`OCCCc1ccc(-c2ccc(CCCO)c(C(F)(F)F)c2)cc1C(F)(F)F`: the melting point fell in the range of 87.5 to 90 °C.
Molecule `Nc1cc(OC(=O)Oc2cc(N)c(F)cc2Cl)c(Cl)cc1F` had a melting point of 136 to 137 °C.
With `O=c1ccoc2c(CCCc3ccccc3)c(OCc3ccccc3)ccc12` the figure was 106 to 108 °C; with `Cc1c(-c2ccc(O)cc2)n(Cc2ccc(C#CCN3CCCCC3)cc2)c2ccc(O)cc12`, 118 to 123 °C.
On to `Cc1c[nH]c(=O)n(C(=O)c2ccccc2)c1=O`, for which the melting point lay in the range of 178 to 180 °C.
In turn, `CON=C(C1=NCCO1)c1ccccc1OCc1ccc(Cl)cc1` yielded a melting point of 97 to 100 °C.
Regarding `CCc1c(N)c(Cl)cc(Cc2cc(Cl)c(N)c(CC)c2Cl)c1Cl`, the melting point was in the range of 146 to 148 °C.
With `Clc1ccc2c(c1)N=C(NCc1cccnc1)c1ccccc1S2` the figure was 152 to 153 °C.
For `CCCN(Cc1ccccc1)c1cccc(-c2nc(NC)nc3cc(OC)c(OC)cc23)c1`, the melting point fell in the range of 75 to 77 °C.
In turn, `CSc1ncc(Cc2ccc(C)nc2)c(=O)[nH]1` gave a melting point of 197 to 198 °C.
Molecule `CSc1nnc(-c2ccc3occ(-c4ccccc4Cl)c3c2)o1` had a melting point of 137 to 138 °C.
For `COC(=O)c1cc(Nc2ccc(C)cc2)c(C(=O)OC)cc1Nc1ccc(C)cc1`, the melting point is 205 to 207 °C.
Take `Nc1sc2c(c1C(=O)c1ccccn1)CCCC2`: the melting point was 191 to 193 °C.
With `CCOCCc1cc(C)c(OCC=NO)cc1C` the figure was 66 to 70 °C.
Consider `CCOC(=O)COc1cc(-n2nc(C)n(C(F)F)c2=O)c(Cl)cc1Cl`, for which the melting point was in the range of 118 to 119 °C.
Consider `O=Cc1ccc2c(c1)CC[C@H](Cc1ccc(O)cc1)O2`, for which the melting point is 134 to 135 °C.
Regarding `CSc1ncc(C#N)c(NC2CCCC2)n1`, the melting point was in the range of 119 to 122 °C.
With `Cc1cc(N)c(NC(=O)OC(C)(C)C)cc1C(F)(F)F` the figure was 144 °C; with `CN(C)c1ccc(C(=O)c2ccc(N)cc2)cc1`, 150 °C; with `NC(=O)N1C(=O)C(C(=O)c2ccco2)c2ccc(F)cc21` (configuration not stated), 231 to 235 °C.
`O=C(O)C(=O)N1CCC(Cc2ccc(F)cc2)CC1` registered a melting point of 152 to 154 °C.
Turning to `CCCCCS(=O)(=O)NC(=O)CCc1cc(C(C)(C)C)nn1Cc1ccc(C(F)(F)F)cc1Cl`, the melting point was 136 to 137 °C.
As for `CC(=O)Nc1cccc(/C=C/C(=O)N2CC(CCl)c3c2cc([N+](=O)[O-])c2ccccc32)c1` (configuration not stated), the melting point was in the range of 214 to 216 °C.
`COC(=O)C1(C(=O)OC)CCC1(C(=O)OC)C(=O)OC` showed a melting point of 80.5 to 81 °C.
As for `Cn1cc(-c2cccc(F)c2)c(=O)c(-c2cccc(Cl)c2)c1`, the figure is 145 to 146 °C; as for `O=C(c1ccc([N+](=O)[O-])cc1)c1cc2c(c(Cl)c1Cl)OC(C(=O)O)C2` (configuration not stated), 243 to 245 °C; as for `CCOC(=O)C(=O)Nc1cc(OC)cc(NC(=O)C(=O)OCC)n1`, 155 to 156 °C.
Turning to `CCOC(=O)c1cc2c(C)c(C(=O)OCC)sc2[nH]1`, the melting point came out at 139 °C.
`FC(F)(F)Sc1ccc(C=Cc2nc(COc3ccc(CCCCn4ccnn4)cc3)co2)cc1` returned a melting point of 144 to 145 °C.
Turning to `COc1cc(O)c(Cl)c2cc(-c3ccc(O)cc3)oc12`, the melting point lay within 176 to 177 °C.
The molecule `CC(C)(C)OC(=O)NCCCON=C(c1ccccc1)c1cc2ccncc2[nH]1` returned a melting point of 52 to 58 °C.
The molecule `CCOc1ccc(-c2ccc3c(c2)C=C(C(=O)OC)CCS3(=O)=O)cc1` came in with a melting point of 173 to 175 °C.
In turn, `NC(=O)c1ccc(F)c2c1CC(N(CCC(=O)c1c[nH]c3ccc(F)cc13)C1CCC1)CO2` (configuration not stated) showed a melting point of 139 °C.
Molecule `NC(=O)c1ccc(F)c(O)c1F` displayed a melting point of 161 to 162 °C.
In the case of `C[C@H](CC(F)(F)F)[C@@H](CO)NS(=O)(=O)c1ccc(Cl)s1`, the melting point lay in the range of 132 to 133 °C.
Consider `CCCn1nc(CC)c(C(=O)OC)c1Cc1ccc(-c2ccccc2S(N)(=O)=O)cc1`, for which the melting point is 144 °C.
As for `CCc1nc2cnc3cc(OCc4ccccc4)ccc3c2n1CC(C)C`, the melting point came out at 127 °C.
For the molecule `CNCC1CN(c2c(F)cc3c(=O)c(C(=O)O)cn(C4CC4)c3c2Cl)CC1C` (configuration not stated), the melting point lay within 253 to 255 °C.
Turning to `COc1ccc(N2CCc3c(C)nc4c(OC)cccc4c32)c(C)c1`, the melting point lay in the range of 163 to 167 °C.
For `CCC(Oc1ccc(C(C)(C)CC)cc1C(C)(C)CC)C(=O)Nc1cc(OC(C)=O)c(C)c(Cl)c1O` (configuration not stated), the melting point was in the range of 188 to 190 °C.
Regarding `CN1CCN(c2ccc(F)cc2C=C2CCCN(c3ccc(Cl)cc3)C2=O)CC1`, the melting point was in the range of 158 to 159 °C.
With `COC(=O)c1ccc(-c2nc(-c3ccc(C(C)(C)C)cc3)no2)c(N)c1` the figure was 195 to 196 °C; with `N#Cc1ccccc1CSc1nc2cnccc2[nH]1`, 200 to 202 °C; with `CCOC(=O)c1c2ccc(Cl)cc2c(-c2ccccc2)n1C`, 94 to 96 °C.
In turn, `NC(=O)CCCSc1nccc(NC(N)=NCC(F)(F)F)n1` showed a melting point of 202 to 203 °C.
`CC(C)(O)C(=O)c1ccc(Oc2ccc(C(=O)C(C)(C)O)cc2)cc1` displayed a melting point of 96 to 99 °C.
With `Cc1c(NC(=O)c2ccc(C(C)(C)C)cc2)nc2ccc(-n3ccnc3)nn12` the figure was 302 to 303 °C.
With `O=C(O)c1c[nH]c2nc(NCc3ccccc3)nn2c1=O` the figure was 240 to 245 °C.
As for `CN(C)Cc1ccc(CSCCNC(=C[N+](=O)[O-])NCCCN(C)CCN(Cc2ccc(F)cc2)c2ccccn2)o1`, the figure is 63 °C; as for `CCOC(=O)c1cn(C2CC2)c2c(F)c(N3CC(CNC(C)=O)C3)c(F)cc2c1=O`, 170 to 190 °C; as for `CCCOc1ccccc1-c1nc(O)cc(O)n1`, 224 to 225 °C.
`CCC1CCC(=O)C=C1c1ccc(OCC(=O)O)cc1Cl` (configuration not stated) yielded a melting point of 138 to 140 °C.
The molecule `COc1cc2c(cc1OC(=O)C=Cc1ccccc1)C1Cc3c(Cl)cc(OC)c(OC(=O)C=Cc4ccccc4)c3CN1CC2` (configuration not stated) showed a melting point of 240 to 242 °C.
`Cc1oc(-c2ccccc2)nc1COc1ccc(COc2cccc(CC(=O)O)c2)cc1` registered a melting point of 159 to 160 °C.
Molecule `Cc1cc(C2=NOC(c3cc(Cl)cc(Cl)c3)(C(F)(F)F)C2)ccc1F` (configuration not stated) showed a melting point of 72 to 74 °C.
As for `CC(=O)SC1NC(=O)C1Cc1ccccc1` (configuration not stated), the figure is 42 to 43 °C; as for `O=C(Cc1ccccc1Cl)Nc1ccc(C(=O)N2Cc3cccn3Cc3ccccc32)cc1`, 99 to 103 °C; as for `COC(=O)c1ccc(NS(=O)(=O)c2cc(OCC(F)(F)F)cc(OCC(F)(F)F)c2)cn1`, 158 to 160 °C.
As to `CCOC(=O)N1CCC(Nc2nc3ccccc3n2Cc2csc(C)n2)CC1`, the melting point was determined as 160 °C.
With `NC(=O)CN1C(=O)C(=Cc2ccc(OCCc3ccccc3)c(OCc3ccccc3)c2)SC1=S`, the melting point is 212 to 214 °C.
As for `COc1ccc2c(c1)c(CC(=O)OCc1cccnc1)c(C)n2C(=O)c1ccc(Cl)cc1`, the figure is 116 to 118 °C.
Molecule `CS(=O)(=O)c1ccc(C(=O)Nc2ccc(-n3nc(C4CC4)cc3C3CC3)cc2)cc1` registered a melting point of 171 to 176 °C.
Regarding `Cc1cccc(-c2n[nH]cc2-c2ccnc(-c3ccc(C(=O)NC4CCOCC4)cc3)c2)n1`, the melting point was 148 °C.
Molecule `CCOc1ccc2c(S(=O)(=O)c3ccc(O)cc3)c(C(C)C)cn2c1` came in with a melting point of 220 to 221 °C.
The molecule `CC(C)(C)c1ccc(C2(N=C=O)CCC3(CC2)OCCO3)cc1` displayed a melting point of 103 to 106 °C.
Regarding `CC(C)(C)c1cc(OCc2ccccc2C(=O)O)cc(C(C)(C)C)c1`, the melting point is 173 to 174 °C.
With `Cc1nc(OCC(F)(F)F)c([N+](=O)[O-])c(N2CCN(c3ccc(F)cc3)CC2)n1`, the melting point was in the range of 92 to 95 °C.
For the molecule `CC(=O)NC(=Cc1ccccc1)C1=NC(=Cc2ccc(C)s2)C(=O)O1`, the melting point fell in the range of 193 to 194 °C.
In turn, `O=C(N[C@H]1CCC[C@@H]1O)C(O)=CC(=O)c1cc(Cc2ccc(F)cc2F)cn(Cc2ccc(F)cc2)c1=O` came in with a melting point of 85 to 86 °C.
In turn, `Cc1c(NC(=O)c2ccc(-c3cc4ccccc4o3)cc2F)ccc2cc(CN3CCCC3)cnc12` yielded a melting point of 202 to 203 °C.
As for `CCOC(=O)C1Cc2c([nH]c3ccccc23)CN1C(=S)SCc1ccc(Cl)cc1` (configuration not stated), the figure is 195 to 197 °C; as for `COC(=O)c1ccc(CBr)c(N(C)C(=O)OC)c1`, 99 to 102 °C.
